Laboratory results taken from publication PMC12040169 (PLOS Biology, 2025).

Experiment: in vitro
Conditions: human, hela cells, % viability

Row | SMILES | viability at 28.5 h, 10 µM
1 | COc1ccc(C)cc1NC(=O)C1CC(=O)Nc2ncnn21 (stereo not drawn) [CBK270274] | 99.5%
2 | CSCCC(=O)N1CCC2(CCN(C(=O)Cc3c[nH]c4ccccc34)C2)C1 (stereo not drawn) [CBK131442] | 95.3%
3 | O=C(Nc1sc2c(c1C(=O)O)CCCC2)c1cc2ccccc2o1 [CBK264551] | 91%
4 | O=C(O)CCC(NC(=O)c1ccc(-c2ccc(F)cc2)s1)C(=O)O (stereo not drawn) [CBK295172] | 102%
5 | CN(CC(=O)Nc1ccc([N+](=O)[O-])cc1)S(=O)(=O)c1ccc2ccccc2c1 [CBK267422] | 92.7%
6 | COc1ccc(S(=O)(=O)N(C)CC(=O)Nc2ccc(S(N)(=O)=O)cc2)cc1C [CBK267333] | 93.7%
7 | Cc1cccnc1NS(=O)(=O)c1cccs1 [CBK299775] | 80.6%
8 | Cc1cc(C[C@@H]2COC[C@H]2NCc2ccc(C(C)C)cc2)on1 [CBK284884] | 107%
9 | CCOC(=O)c1sc2nc(C(C)N3CCCCC3)[nH]c(=O)c2c1C (stereo not drawn) [CBK306078] | 111%
10 | COc1ccc([C@@H]2CCN(C(=O)Cc3ccc(F)cc3)C[C@H]2O)cc1 [CBK283709] | 88.8%
11 | Cc1ncc2c(n1)[C@@H]1CN(C(=O)Cc3cccs3)C[C@@H]1CC2 [CBK284491] | 89.3%
12 | COc1ccccc1-c1ccccc1CC1(C(=O)NCc2ccc(F)cc2)CCOCC1 [CBK286425] | 90%
13 | O=C1NCCCC12CCN(Cc1cccs1)CC2 [CBK285346] | 85.2%
14 | CC1(C)SC2c3ccccc3C(=O)N2[C@@H]1C(=O)N1CCC(C(=O)O)CC1 (stereo partly drawn) [CBK286760] | 89.4%
15 | COc1ccc(C)cc1CN(C)C(=O)c1cccc(NC(=O)C2CC2)c1 [CBK305414] | 98.5%
16 | COC(=O)c1c(C)n(CCCNc2ccc([N+](=O)[O-])cc2Cl)c2ccc(O)cc12 [CBK268363] | 86.2%
17 | COc1cccc(N2CCN(c3cc4n[nH]c(=O)n4cn3)CC2)c1 [CBK300511] | 87.1%
18 | COC(=O)c1ccccc1S(=O)(=O)Nc1nnn[nH]1 [CBK021321] | 97.8%
19 | COc1ccc(NC(=O)N2CC[C@H]3CC(=O)N(CCN4CCNC4=O)CC[C@H]3C2)cc1 [CBK288797] | 86.8%
20 | CCCn1nnc(NCc2ccc(Cl)cc2)n1 [CBK288089] | 97.2%
21 | CCc1cccc2c(CC(=O)N(C)CCN(C)C)c(C)[nH]c12 [CBK282673] | 102%
22 | COc1ccc(/C=N/NS(=O)(=O)c2ccc(C)cc2)cc1CSc1ccccn1 [CBK263036] | 96%

Row | SMILES | viability at 28.5 h, 10 µM
23 | O=C1Nc2ccccc2/C1=C/c1ccc(-c2cccc(C(=O)O)c2)o1 [CBK077952] | 89.4%
24 | Cc1c(O)ccc2c(COC(=O)C3(c4ccccc4)CCCC3)cc(=O)oc12 [CBK295622] | 98.8%
25 | COc1ccc(C(=O)NC(N2CCCCC2)C(Cl)(Cl)Cl)cc1 (stereo not drawn) [CBK087021] | 89.1%
26 | O=C(O)CCCNc1ncnc2c1oc1ccccc12 [CBK287573] | 101%
27 | O=C(Cn1cc(-c2ccc(CN3CCCCC3)cc2)nn1)NCc1ccc(Cl)cc1Cl [CBK167689] | 83.2%
28 | COc1ccccc1CN(CC(C)(C)CN)C(=O)NCc1ccc(F)cc1 [CBK002470C] | 87%
29 | COc1ccc(-n2c(SCC(N)=O)nc3sc4c(c3c2=O)CC(C)(C)OC4)cc1 [CBK263232] | 101%
30 | CCC(c1ccc(F)cc1)N(C)C(=O)Cn1cccc(C(=O)NC2CCCCC2)c1=O (stereo not drawn) [CBK286114] | 96.4%
31 | COc1ccc(C)cc1S(=O)(=O)N(C)CC(=O)O [CBK267863] | 106%
32 | CN(CC(=O)Nn1cnnc1)S(=O)(=O)c1ccc(Br)cc1 [CBK268597] | 85.9%
33 | Cc1csc(-c2ccc(C(=O)N3CCN(C)CC3)c(N3CCOCC3)n2)c1 [CBK106195] | 90.8%
34 | CC(C)c1csc(NC(=O)CC2CCN(C(=O)CC3CCCCC3)CC2)n1 [CBK285963] | 82.3%
35 | Cn1ccnc1C1(O)C2CCCC1CN(Cc1ccc(F)c(F)c1)C2 (stereo not drawn) [CBK285189] | 95.1%
36 | Cc1ccccc1S(=O)(=O)Nc1cc(CN2C[C@H](C)NC[C@H]2C)c2occc2c1 [CBK107210T] | 108%
37 | O=C(NCCCc1ccc(Cl)cc1)c1cc2c([nH]c1=O)CCC2 [CBK281560] | 89%
38 | COc1ccc2[nH]cc(CCNC(=O)CCC(=O)O)c2c1 [CBK116605] | 96.5%
39 | N#Cc1cnc(NCc2ccccc2)nc1N [CBK015764] | 90%
40 | CC1=C[C@@H](CNS(C)(=O)=O)[C@H](C(C)C)C[C@H]1CC(=O)N1CCOCC1 [CBK289050] | 89.3%
41 | COCc1cn([C@H]2CO[C@H]3[C@@H]2OC[C@@H]3NC(=O)c2ccc(OC)cc2)nn1 [CBK289494] | 115%
42 | CCN1CCN(c2ccc(N3C(=O)N[C@@H](C(C)C)C3=O)cc2)CC1 [CBK287953] | 87.5%
43 | COc1cccc(NC(=O)CC(CN2CCN(CCC#N)CC2)C(=O)O)c1 (stereo not drawn) [CBK286801] | 86.1%
44 | COc1ncc(-c2nc(NC(=O)Cc3cc(F)c(F)c(F)c3)cnc2-c2cccc(C)c2)c(OC)n1 [CBK036717] | 96.4%

Row | SMILES | viability at 28.5 h, 10 µM
45 | CCCC(CCC)NC(=O)c1ccc(-n2nc(C(=O)OCC)c(Cl)c2C)cc1 [CBK114323] | 93.9%
46 | O=C(O)COc1ccccc1/C=N\N1CCN(Cc2ccccc2Cl)CC1 [CBK020891] | 96.7%
47 | Cc1nc2c(c(=O)[nH]1)CC[C@@H]1CN(C(=O)C3CCCCC3)C[C@H]21 [CBK284407] | 102%
48 | c1ccc(CC2CCN(CCC(c3ccccc3)c3ccccc3)CC2)cc1 [CBK126389] | 102%
49 | COc1cc(C)nc(NCc2cnn(C)c2C)n1 [CBK306277] | 85.4%
50 | C[C@@H](Nc1cncc(-c2ccccc2CO)n1)c1ccccc1 [CBK065543] | 106%
51 | CSc1nccc(N2CCC(NCCn3c(C)cc(C)nc3=O)CC2)n1 [CBK307070] | 85.3%
52 | O=C1COc2ccccc2C/C=C/CC2(CCCNC2)CN1 (stereo not drawn) [CBK292029] | 91.5%
53 | O=C(Nc1ccc2c(c1)OCO2)c1cccc(I)c1 [CBK058308] | 85.7%
54 | CCOc1cc([N+](=O)[O-])cc(C=O)c1OC(C)C(=O)O (stereo not drawn) [CBK264642] | 89.6%
55 | O=c1nc(C(F)(F)F)n2ccccc2n1 [CBK027683] | 97.2%
56 | N=c1n(CCN2CCCCC2)c2ccccc2n1CC(=O)c1cccc([N+](=O)[O-])c1 [CBK263481B] | 103%
57 | O=c1nc2c(cn1[C@H]1C[C@@H](O)[C@@H](CO)O1)Sc1ccccc1N2 [CBK201237] | 100%
58 | COc1cc(OC)nc(C(NC(=O)C2CCN(Cc3cn(C)c4ccccc34)CC2)c2ccc(F)cc2)n1 (stereo not drawn) [CBK148185] | 90.7%
59 | O=C(Nc1ccc(Cc2ccncc2)cc1)c1cc([N+](=O)[O-])n[nH]1 [CBK269157] | 99.4%
60 | Cc1[nH]c2ccc(F)cc2c1CC(=O)N(C)CCN1CCCCC1 [CBK282748] | 84.3%
61 | CC(=O)N(C)c1ncc(Br)cc1C(=O)NCc1nc2ccccc2[nH]1 [CBK076522] | 95.9%
62 | Cc1ccc(C#N)c(NCc2ccccc2CN2CCCC2CO)n1 (stereo not drawn) [CBK304076] | 75.5%
63 | O=C1c2cccc3cccc(c23)C(=O)N1CC1CCN(CC(O)COCC2COc3ccccc3O2)CC1 (stereo not drawn) [CBK074412C] | 100%
64 | CC(=O)c1cc(CN2CCCOC(Cn3cccn3)C2)cs1 (stereo not drawn) [CBK307365] | 84.3%
65 | COc1ccc(C(CC(=O)O)CC(=O)O)cc1OC [CBK263545] | 91.9%
66 | CC(C)(C)OC(=O)N1CCC(C(=O)NC[C@H](CC(=O)O)c2ccc(Cl)cc2)CC1 [CBK286691] | 98%

Row | SMILES | viability at 28.5 h, 10 µM
67 | CN(Cc1ccccc1)S(=O)(=O)c1ccc2c(c1)n(C)c(=O)n2C [CBK266644] | 95.6%
68 | CCCc1[nH]nc(O)c1Cc1ccc(C(F)(F)F)cc1 [CBK075014] | 88.9%
69 | O=C(c1n[nH]c2c1CCC2)N1CCC(c2ccccc2)C1 (stereo not drawn) [CBK281851] | 87.9%
70 | Cc1nnc2n1CCN(C(=O)CC1OCCc3sccc31)C2 (stereo not drawn) [CBK304956] | 94%
71 | NC(=O)C1(Cc2ccc(-c3ccccc3)cc2)CCN(C(=O)CCc2ccccc2)CC1 [CBK285772] | 102%
72 | CC(C)n1cc(C(=O)NCc2cccnc2N(C)C2CCCCC2)cn1 [CBK307593] | 105%
73 | CS(=O)(=O)c1ccc(-c2ccc(COC3CCN(C(=O)Cc4cccc(C(F)(F)F)c4)CC3)cn2)cc1 [CBK162231T] | 102%
74 | CCCS(=O)(=O)NC1CC(C)(C)Cc2c1cnn2-c1ccc(C)cc1 (stereo not drawn) [CBK307531] | 86.5%
75 | Cc1ccc(S(=O)(=O)N(C)CC(=O)Nc2ncc(C(F)(F)F)cc2Cl)cc1 [CBK266729] | 94.8%
76 | CN(C)CCCN(Cc1ccc2ncccc2c1)Cc1ccco1 [CBK283197] | 112%
77 | CCOC(=O)c1[nH]c2ccccc2c1NS(=O)(=O)c1ccc(C)c([N+](=O)[O-])c1 [CBK047427] | 97.6%
78 | O=C(NC1CCCCCC1)c1[nH]nc(O)c1Cc1c(Cl)cccc1Cl [CBK107847] | 91.9%
79 | CC(NC(=O)CCc1cc2n(n1)CCNC2)c1cn2ccsc2n1 (stereo not drawn) [CBK306551] | 91.2%
80 | NS(=O)(=O)c1cnc(Cl)c(Br)c1 [CBK034079] | 92.5%
81 | O=C(Nc1cccc(-c2csnn2)c1)c1ccco1 [CBK270255] | 85.2%
82 | COc1ccc(CCNC(=O)N2CCCCC2CO)cc1 (stereo not drawn) [CBK156188] | 92.8%
83 | O=C(NC1CC2(CCCCC2)Oc2ccccc21)C1CCOC1 (stereo not drawn) [CBK283760] | 105%
84 | CCCS(=O)(=O)Nc1cccc(-c2nnn[nH]2)c1 [CBK155417] | 104%
85 | O=C(CC1Sc2ccc(Cl)cc2NC1=O)Nc1ccc([N+](=O)[O-])cc1 (stereo not drawn) [CBK264860] | 98%
86 | CCOC(=O)Cn1nc(CC)c(Cc2c(Cl)cccc2Cl)c1C [CBK113222] | 122%
87 | O=C(Cn1ncn2c(cc3ccsc32)c1=O)N1CCCCC1 [CBK284195] | 85.2%
